Values of other authors as cited in patent publication US20220161013A1, “IMPROVED DELIVERY OF DRUG THERAPY TO THE CNS BY ULTRASOUND-BASED OPENING OF THE BLOOD-BRAIN BARRIER” (NORTHWESTERN UNIVERSITY, priority 2019, published 2022).

Experiments:
p-Glycoprotein = p-Glycoprotein (Homo sapiens, UniProt P08183)
[1] = test system: orthotropic glioma xenograft model; conditions: with valspodar, nude mice
[2] = local convection-enhanced delivery

Sequence of p-Glycoprotein (P08183 whole entry): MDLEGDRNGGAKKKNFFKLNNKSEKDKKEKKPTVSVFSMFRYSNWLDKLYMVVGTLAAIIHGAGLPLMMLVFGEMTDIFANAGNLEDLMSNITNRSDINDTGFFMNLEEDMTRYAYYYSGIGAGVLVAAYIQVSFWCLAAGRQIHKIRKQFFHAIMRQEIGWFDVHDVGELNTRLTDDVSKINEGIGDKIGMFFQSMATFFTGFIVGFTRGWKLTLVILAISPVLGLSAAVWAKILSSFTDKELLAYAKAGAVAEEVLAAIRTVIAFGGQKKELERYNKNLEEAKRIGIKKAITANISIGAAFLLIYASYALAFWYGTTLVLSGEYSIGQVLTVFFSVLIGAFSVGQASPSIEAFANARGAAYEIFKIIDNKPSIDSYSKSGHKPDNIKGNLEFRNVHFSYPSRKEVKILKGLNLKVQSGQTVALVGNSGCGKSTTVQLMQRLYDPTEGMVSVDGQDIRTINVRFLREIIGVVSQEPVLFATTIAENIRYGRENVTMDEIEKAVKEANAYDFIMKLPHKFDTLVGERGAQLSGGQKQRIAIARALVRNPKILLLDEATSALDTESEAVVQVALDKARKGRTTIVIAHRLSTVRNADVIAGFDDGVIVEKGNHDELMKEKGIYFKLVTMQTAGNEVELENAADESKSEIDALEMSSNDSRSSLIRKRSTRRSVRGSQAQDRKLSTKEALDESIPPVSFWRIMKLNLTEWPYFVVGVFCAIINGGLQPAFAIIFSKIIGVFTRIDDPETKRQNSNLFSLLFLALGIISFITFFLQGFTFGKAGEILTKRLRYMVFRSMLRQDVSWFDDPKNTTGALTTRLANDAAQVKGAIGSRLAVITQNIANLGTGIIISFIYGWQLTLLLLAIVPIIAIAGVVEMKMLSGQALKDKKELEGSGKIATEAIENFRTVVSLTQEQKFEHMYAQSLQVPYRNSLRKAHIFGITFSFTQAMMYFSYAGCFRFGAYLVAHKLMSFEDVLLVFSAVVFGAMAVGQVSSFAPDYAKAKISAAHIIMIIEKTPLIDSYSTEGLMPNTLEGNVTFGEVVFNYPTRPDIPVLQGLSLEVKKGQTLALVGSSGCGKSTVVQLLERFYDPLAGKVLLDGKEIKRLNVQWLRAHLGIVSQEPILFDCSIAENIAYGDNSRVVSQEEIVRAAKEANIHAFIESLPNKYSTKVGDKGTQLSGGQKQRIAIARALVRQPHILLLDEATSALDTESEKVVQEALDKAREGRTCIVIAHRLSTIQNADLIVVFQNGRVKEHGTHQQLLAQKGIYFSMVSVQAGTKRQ

substrate for the multidrug resistance protein p-Glycoprotein (p-Glycoprotein): substrate
Compound: CC(=O)O[C@H]1C(=O)[C@@]2(C)[C@H]([C@H](OC(=O)c3ccccc3)[C@]3(O)C[C@H](OC(=O)[C@H](O)[C@@H](NC(=O)c4ccccc4)c4ccccc4)C(C)=C1C3(C)C)[C@]1(OC(C)=O)CO[C@@H]1C[C@@H]2O [PTX, paclitaxel]
effectiveness when using p-Glycoprotein blocker valspodar [1]: significant increased effectiveness | response rate [2]: 73%
